# Like-named read-outs stand apart in the source and are kept apart here.
# Legend:
# P. aeruginosa ATCC 27853 = experiment: MIC assay, CLSI broth microdilution, P. aeruginosa ATCC 27853 (APAE001); assay type: cell-based; conditions: for MIC: Pseudomonas aeruginosa, read-out: MIC APAE001
# Method: (§1) Minimum inhibitory concentrations (MIC) were determined by reference Clinical and Laboratory Standards Institute (CLSI) broth microdilution methods per M7-A7 [2006]. Quality control ranges utilizing E. coli ATCC 25922, P. aeruginosa ATCC 27853 and S. aureus ATCC 29213, and interpretive criteria for comparator agents were as published in CLSI M100-S17 [2007]. Briefly, serial two-fold dilutions of the test compounds were prepared at 2× concentration in Mueller Hinton Broth. The compound dilutions were mixed in 96-well assay plates in a 1:1 ratio with bacterial inoculum. The inoculum was prepared by suspension of a colony from an agar plate that was prepared the previous day. Bacteria were suspended in sterile saline and added to each assay plate to obtain a final concentration of 5×10^5 CFU/mL. The plates were incubated at 35° C. for 20 hours in ambient air.
# E. coli ATCC 25922 = experiment: MIC assay, CLSI broth microdilution, E. coli ATCC 25922 (AECO001); assay type: cell-based; conditions: for MIC: Escherichia coli, read-out: MIC AECO001
# Method: as §1
# These MIC assays were conducted following the same protocol as set forth in Example 110. As shown, substituted sisomicin derivatives with groups other than methyl at the 6′-position have improved activity against strains expressing the AAC6′-modifying enzymes.
# [1] = APAE001 is ATCC27853, 35° C., 20 hours
# [2] = AECO001 is ATCC25922, 35° C., 20 hours
Structure (SMILES),"MIC (P. aeruginosa ATCC 27853; ATCC27853, 20 h) [µg/mL]","MIC (E. coli ATCC 25922; ATCC25922, 20 h) [µg/mL]",also measured
"CN[C@@H]1[C@@H](O)[C@@H](O[C@@H]2[C@@H](O)[C@H](O[C@H]3OC(CNCCCN)=CC[C@H]3N)[C@@H](N)C[C@H]2NC(=O)CO)OC[C@]1(C)O [Example 24, 6′-(3-Amino-propyl)-1-(2-hydroxy-acetyl)-sisomicin]",1 to 16,1 to 16,–
"CN[C@@H]1[C@@H](O)[C@@H](O[C@@H]2[C@@H](O)[C@H](O[C@H]3OC(CNCCO)=CC[C@H]3N)[C@@H](N)C[C@H]2NC(=O)CO)OC[C@]1(C)O [Example 25, 6′-(2-Hydroxy-ethyl)-1-(2-hydroxy-acetyl)-sisomicin]",1 to 16,1 to 16,–
"CN[C@@H]1[C@@H](O)[C@@H](O[C@@H]2[C@@H](O)[C@H](O[C@H]3OC(CNCCCN)=CC[C@H]3N)[C@@H](N)C[C@H]2NS(=O)(=O)CCN)OC[C@]1(C)O [Example 26, 6′-(3-Amino-propyl)-1-(2-amino-ethylsulfonamide)-sisomicin]",1 to 16,1 to 16,–
"CN[C@@H]1[C@@H](O)[C@@H](O[C@@H]2[C@@H](O)[C@H](O[C@H]3OC(CNCC(O)CO)=CC[C@H]3N)[C@@H](N)C[C@H]2NS(=O)(=O)CCN)OC[C@]1(C)O (stereo partly drawn) [Example 27, 6′-(2-Hydroxy-propanol)-1-(2-amino-ethylsulfonamide)-sisomicin]",> 16,1 to 16,–
"CN[C@@H]1[C@@H](O)[C@@H](O[C@@H]2[C@@H](O)[C@H](O[C@H]3OC(CNC[C@H](O)CO)=CC[C@H]3N)[C@@H](N)C[C@H]2NC(=O)[C@@H](O)CCN)OC[C@]1(C)O [Example 28, 6′-(2(S)-Hydroxy-propanol)-1-(4-amino-2(S)-hydroxy-butyryl)-sisomicin]",1 to 16,1 to 16,–
"CN[C@@H]1[C@@H](O)[C@@H](O[C@@H]2[C@@H](O)[C@H](O[C@H]3OC(CNCCO)=CC[C@H]3N)[C@@H](N)C[C@H]2NS(=O)(=O)CCN)OC[C@]1(C)O [Example 29, 6′-(2-Hydroxy-ethyl)-1-(2-amino-ethylsulfonamide)-sisomicin]",> 16,1 to 16,–
"CN[C@@H]1[C@@H](O)[C@@H](O[C@@H]2[C@@H](O)[C@H](O[C@H]3OC(CNCC(N)CO)=CC[C@H]3N)[C@@H](N)C[C@H]2NC(=O)[C@@H](O)CCN)OC[C@]1(C)O (stereo partly drawn) [Example 30, 6′-(2-Amino-propanol)-1-(4-amino-2(S)-hydroxy-butyryl)-sisomicin]",1 to 16,< 1,–
CN[C@@H]1[C@@H](O)[C@@H](O[C@@H]2[C@@H](O)[C@H](O[C@H]3OC(CNCC4(O)CCNCC4)=CC[C@H]3N)[C@@H](N)C[C@H]2NC(=O)[C@@H](O)CCN)OC[C@]1(C)O [Example 31],1 to 16,1 to 16,–
"CN[C@@H]1[C@@H](O)[C@@H](O[C@@H]2[C@@H](O)[C@H](O[C@H]3OC(CNCC(O)CCCN)=CC[C@H]3N)[C@@H](N)C[C@H]2NC(=O)[C@@H](O)CCN)OC[C@]1(C)O (stereo partly drawn) [Example 32, 6′-(2-Hydroxy-5-amino-pentyl)-1-(4-amino-2(S)-hydroxy-butyryl)-sisomicin]",1 to 16,< 1,–
"CN[C@@H]1[C@@H](O)[C@@H](O[C@@H]2[C@@H](O)[C@H](O[C@H]3OC(CNC[C@H]4C[C@H](N)C4)=CC[C@H]3N)[C@@H](N)C[C@H]2NC(=O)[C@@H](O)CCN)OC[C@]1(C)O [Example 33, 6′-(Methyl-trans-3-amino-cyclobutyl)-1-(4-amino-2(S)-hydroxy-butyryl)-sisomicin]",1 to 16,< 1,–
CN[C@@H]1[C@@H](O)[C@@H](O[C@@H]2[C@@H](O)[C@H](O[C@H]3OC(CNCC(O)CCN)=CC[C@H]3N)[C@@H](N)C[C@H]2NC(=O)C2(O)CCNC2)OC[C@]1(C)O (stereo partly drawn) [Example 35],1 to 16,< 1,–
CN[C@@H]1[C@@H](O)[C@@H](O[C@@H]2[C@@H](O)[C@H](O[C@H]3OC(CNCCO)=CC[C@H]3N)[C@@H](N)C[C@H]2NC(=O)C2(O)CNC2)OC[C@]1(C)O [Example 37],1 to 16,< 1,–
"CN[C@@H]1[C@@H](O)[C@@H](O[C@@H]2[C@@H](O)[C@H](O[C@H]3OC(CNCCN)=CC[C@H]3N)[C@@H](N)C[C@H]2NC(=O)[C@@H](O)CCN)OC[C@]1(C)O [Example 38, 6′-(2-Amino-ethyl)-1-(4-amino-2(S)-hydroxy-butyryl)-sisomicin]",1 to 16,< 1,–
CN[C@@H]1[C@@H](O)[C@@H](O[C@@H]2[C@@H](O)[C@H](O[C@H]3OC(CNCC4(O)CC(CN)C4)=CC[C@H]3N)[C@@H](N)C[C@H]2NC(=O)[C@@H](O)CCN)OC[C@]1(C)O (stereo partly drawn) [Example 39],–,–,MIC (P. aeruginosa ATCC 27853; [1]): 1 to 16 µg/mL; MIC (E. coli ATCC 25922; [2]): < 1 µg/mL
CN[C@@H]1[C@@H](O)[C@@H](O[C@@H]2[C@@H](O)[C@H](O[C@H]3OC(CNCCCN)=CC[C@H]3N)[C@@H](N)C[C@H]2NC(=O)C2(O)CCNC2)OC[C@]1(C)O (stereo partly drawn) [Example 40],1 to 16,1 to 16,–
CN[C@@H]1[C@@H](O)[C@@H](O[C@@H]2[C@@H](O)[C@H](O[C@H]3OC(CNCC4CC4)=CC[C@H]3N)[C@@H](N)C[C@H]2NC(=O)C2(O)CCNC2)OC[C@]1(C)O (stereo partly drawn) [Example 41],1 to 16,< 1,–
"CN[C@@H]1[C@@H](O)[C@@H](O[C@@H]2[C@@H](O)[C@H](O[C@H]3OC(CNCC(O)CN)=CC[C@H]3N)[C@@H](N)C[C@H]2NC(=O)C2(O)CCNC2)OC[C@]1(C)O (stereo partly drawn) [Example 42, 6′-(2-Hydroxy-3-amino-propyl)-1-(3-hydroxy-pyrrolidin-3-yl-acetyl)-sisomicin]",1 to 16,1 to 16,–
"CN[C@@H]1[C@@H](O)[C@@H](O[C@@H]2[C@@H](O)[C@H](O[C@H]3OC(CNCCCCN)=CC[C@H]3N)[C@@H](N)C[C@H]2NC(=O)[C@@H](O)CCN)OC[C@]1(C)O [Example 43, 6′-(4-Amino-butyl)-1-(4-amino-2(S)-hydroxy-butyryl)-sisomicin]",< 1,< 1,–
"CN[C@@H]1[C@@H](O)[C@@H](O[C@@H]2[C@@H](O)[C@H](O[C@H]3OC(CNCCCCCN)=CC[C@H]3N)[C@@H](N)C[C@H]2NC(=O)[C@@H](O)CCN)OC[C@]1(C)O [Example 44, 6′-(5-Amino-pentyl)-1-(4-amino-2(S)-hydroxy-butyryl)-sisomicin]",1 to 16,< 1,–
CN[C@@H]1[C@@H](O)[C@@H](O[C@@H]2[C@@H](O)[C@H](O[C@H]3OC(CNCC4(O)CC(N)C4)=CC[C@H]3N)[C@@H](N)C[C@H]2NC(=O)[C@@H](O)CCN)OC[C@]1(C)O (stereo partly drawn) [Example 46],1 to 16,< 1,–
CN[C@@H]1[C@@H](O)[C@@H](O[C@@H]2[C@@H](O)[C@H](O[C@H]3OC(CNCC4(O)CC(N)C4)=CC[C@H]3N)[C@@H](N)C[C@H]2NC(=O)C2(O)CNC2)OC[C@]1(C)O (stereo partly drawn) [Example 47],1 to 16,1 to 16,–
"CN[C@@H]1[C@@H](O)[C@@H](O[C@@H]2[C@@H](O)[C@H](O[C@H]3OC(CNCCCN)=CC[C@H]3N)[C@@H](N)C[C@H]2NC(=O)[C@@H](O)CCN)OC[C@]1(C)O [Example 48, 6′-(3-Amino-propyl)-1-(4-amino-2(S)-hydroxy-butyryl)-sisomicin]",–,–,"MIC (P. aeruginosa ATCC 27853; [1]): 1 to 16 µg/mL; MIC (E. coli ATCC 25922; [2]): < 1 µg/mL; MIC AECO001 (E. coli ATCC 25922; Table 3, E. coli ATCC25922): 1 µg/mL"
"CN[C@@H]1[C@@H](O)[C@@H](O[C@@H]2[C@@H](O)[C@H](O[C@H]3OC(CNCC4CCCN4)=CC[C@H]3N)[C@@H](N)C[C@H]2NC(=O)[C@@H](O)CCN)OC[C@]1(C)O (stereo partly drawn) [Example 49, 6′-(Methyl-pyrrolidin-2-yl)-1-(4-amino-2(S)-hydroxy-butyryl)-sisomicin]",1 to 16,< 1,–
"CN[C@@H]1[C@@H](O)[C@@H](O[C@@H]2[C@@H](O)[C@H](O[C@H]3OC(CNC[C@H](O)C(=O)O)=CC[C@H]3N)[C@@H](N)C[C@H]2NC(=O)[C@@H](O)CCN)OC[C@]1(C)O [Example 50, 6′-(2(S)-Hydroxy-3-propanoic)-1-(4-amino-2(S)-hydroxy-butyryl)-sisomicin]",> 16,> 16,–
"CN[C@@H]1[C@@H](O)[C@@H](O[C@@H]2[C@@H](O)[C@H](O[C@H]3OC(CNCC(C)(C)CN)=CC[C@H]3N)[C@@H](N)C[C@H]2NC(=O)[C@@H](O)CN)OC[C@]1(C)O [Example 51, 6′-(2,2-Dimethyl-3-amino-propyl)-1-(3-amino-2(S)-hydroxy-propionyl)-sisomicin]",–,–,MIC APAE001 (P. aeruginosa ATCC 27853; [1]): C (MIC's of greater than 16.0 μg/mL = C); MIC AECO001 (E. coli ATCC 25922; [2]): A (MIC's of 1.0 μg/mL or less = A)

# From US11117915B2, “Antibacterial aminoglycoside analogs” (Cipla USA, Inc., priority 2007, dated 2021)
